Data as given in patent US20090270477A1, “POLYMORPHS OF A HYDROISOINDOLINE TACHYKININ RECEPTOR ANTAGONIST” (priority 2006, published 2009).

Experiment: Relative thermodynamic stability of the two anhydrous crystalline forms (enantiotropic pair)
Type: physicochemical
Conditions: freebase of compound of structural formula A; Form I and Form II are enantiotropic

Compound	temperatures at which the form is thermodynamically more stable
C[C@@H](O[C@H]1CC[C@@H]2CN(C3=CC(=O)CC3)C[C@H]2[C@@H]1c1ccc(F)cc1)c1cc(C(F)(F)F)cc(C(F)(F)F)c1 [Form II]	above 72 °C
C[C@@H](O[C@H]1CC[C@@H]2CN(C3=CC(=O)CC3)C[C@H]2[C@@H]1c1ccc(F)cc1)c1cc(C(F)(F)F)cc(C(F)(F)F)c1 [Form I]	below 72 °C
